# Tests used:
# [1] = Plasma concentration of (−)-halofenic acid during and after 30-day daily oral 400 mg arhalofenate; format: in vivo, human
# Protocol: Methods used in relation to FIGS. 1-2 showing the pharmacokinetic profile of (−)-halofenic acid were as follows:
# Plasma proteins in human plasma samples containing of (−)-halofenic acid, an internal standard (I.S.) and heparin as the anticoagulant were precipitated with acetonitrile. The samples were vortex mixed, centrifuged and an aliquot was analyzed by reversed phase high performance liquid chromatography using a Phenomenex Polar RP column maintained at 45° C. The mobile phase was nebulized using heated nitrogen in a Z-spray source/interface and the ionized compounds were detected using a tandem quadrupole mass spectrometer.
# The plasma concentrations were rounded to the nearest one-tenth μg/mL before the calculations. Plasma samples with concentrations below the quantifiable limit of 1.0 μg/mL (BQL) were assigned values of zero.
# gout patients = conditions: monotherapy at 40, 80, 120, 160 and 240 mg/day; cited from earlier work
# [2] = tested on: gout patients with hyperuricemia; test: Randomized, double-blind, placebo-controlled 4-week monotherapy trial: sUA reduction and flare prevention; format: in vivo, human; conditions: for Flares considered moderate in severity by the investigator / Patients who reported flare during the Treatment Phase / Patients with flare that required medication (additional colchicine and/or NSAIDs) / Mean duration of Flares Requiring Treatment / Mean duration of Total flares / Mean sUA absolute change from baseline (Day 1) / Mean sUA percent change from baseline (Day 1): 4 weeks; for Mean sUA absolute change from baseline (Day 1) / Mean sUA percent change from baseline (Day 1): PP population; for Mean sUA percent change from baseline (Day 1): colchicine 0.6 mg background
# Protocol: Study Design: This was a randomized, double-blind, placebo-controlled study of 400 mg and 600 mg arhalofenate administered daily for 4 weeks as monotherapy in patients with gout (per criteria of the American Rheumatism Association) with hyperuricemia. Patients using urate lowering therapy (ULT) must have been willing to discontinue treatment for the duration of the study. Patients with a recent history of an acute gout flare must have been symptom free for at least 1 week prior to screening. Upon successful completion of screening, patients entered into a minimum 3-week Run-in/Stabilization Phase. During this phase, patients on existing ULT were asked to temporarily discontinue their current therapy. Patients also started colchicine 0.6 mg once daily until the final study visit as prophylaxis to prevent potential gout flares. Patient who met final eligibility criteria were randomized (1:1:1) into the Treatment Phase to receive Placebo, arhalofenate 400 mg, or arhalofenate 600 mg. Each randomized patient took double-blind study medication daily for a period of four weeks beginning at Day 1 (Visit 3). Patients returned to the study site after 2 weeks at Visit 4 and then weekly at Visits 5 and 6 (Weeks 3 and 4). A Follow-up Visit (Visit 7) took place 2 weeks after the last dose of study medication. […] Patients with a recent history of an acute gout flare must have been symptom free for at least 1 week prior to both screening and randomization. Criteria for Evaluation: The primary efficacy analysis compared the percentage change in sUA from baseline to end of treatment between the treatment groups. In addition, gout flares were captured as special interest event and the incidence of gout flares (all flares and flares that required treatment), severity (as assessed either mild, moderate, or severe by the Principal Investigator), and duration (days) were compared between treatment groups.
# healthy adult subjects = test: Phase 1 multiple-dose study, serum uric acid after once daily oral dosing for 10 days; format: in vivo, human; conditions: all dose levels tested, FIG. 3 and Table 1
# Protocol: Methods used in relation to FIG. 3 showing reduction in serum uric acid in subjects over time following once daily dosing with arhalofenate were as follows.
# A single centre Phase 1, placebo- and positive-controlled, double-blind, randomized, dose escalation study was conducted to evaluate the multiple-dose pharmacokinetics (PK) of (−)-halofenate administered as a daily dose orally for 10 days, at the protocol-specified doses in healthy adult subjects. A total of 119 subjects completed study treatment according to protocol: 6 subjects received (−)-halofenate 100 mg/day for 10 days; 6 subjects received (−)-halofenate 200 mg/day for 10 days; 9 subjects received (−)-halofenate 400 mg/day for 10 days; 20 subjects received (−)-halofenate 600 mg/day for 10 days; 10 subjects received (−)-halofenate 600 mg Enteric Coated (EC)/day for 10 days; 9 subjects received (−)-halofenate 800 mg EC/day for 10 days; 10 subjects received (−)-halofenate 1000 mg EC/day for 10 days; 24 subjects received placebo treatment daily for 10 days; and 25 subjects received naproxen 500 mg b.i.d. monotherapy for 7 days. In this study, serum uric acid was measured at screening and on Days 1, 3, 5, 7, 9, 14 and 21.
# murine 3T3-L1 adipocytes = test: Suppression of uric-acid induced inflammation in vitro; format: cell-based; conditions: 50-150 μM, uric acid 5 or 15 mg/dL, 3 or 7 days
# Protocol: Differentiated murine 3T3-L1 adipocytes are cultured in vitro in 24 well plates. To the culture medium (−)-halofenic acid is added at a final concentration of 50-150 μM prior to the addition of uric acid at 5 mg/dL or 15 mg/dL and the culture continued for 3 or 7 days. A parallel culture of cells is conducted in the presence of a vehicle such as dimethylsulfoxide (DMSO). At the end of the culture period media is removed, cells are isolated and messenger RNA prepared. The levels of secreted cytokines representing a panel of pro-inflammatory cytokines including but not restricted to monocyte chemoattractant protein-1 (MCP-1), tumor necrosis factor α (TNF-α), interleukin-1β, (IL-1β), interleukin-6 (IL-6) and interleukin-12 (Il-12) are determined in the media isolated from the cells using commercially available cytokine assay kits. The levels of gene expression for the mRNAs for a panel of pro-inflammatory cytokines including but not restricted to monocyte chemoattractant protein-1 (MCP-1), tumor necrosis factor α (TNF-α), interleukin-1β, (IL-1β), interleukin-6 (IL-6) and interleukin-12 (Il-12) are determined using real-time PCR. […] A similar study is also conducted in primary mouse macrophages and human umbilical vein endothelial cells.
# [3] = tested on: gout patients with hyperuricemia; test: Open-label trial of arhalofenate in combination with febuxostat vs febuxostat alone: sUA reduction and flare prevention; format: in vivo, human
# Protocol: Study Design: This was an open-label study to determine the sUA reduction and flare prevention with arhalofenate in combination with febuxostat and compared that with febuxostat alone in gout patients (per criteria of the American Rheumatism Association) with hyperuricemia when arhalofenate administered at 400 mg once daily orally for 2 weeks (Weeks 2-3) and then increased to 600 mg once daily orally for an additional 2 weeks (Weeks 4-5) in addition to 80 mg febuxostat once daily orally (Weeks 1-5). Patients with a recent history of an acute gout flare must have been symptom free for at least 1 week prior to screening.
# All patients who met the screening criteria started a 2-week Run-in/Stabilization Phase at the same time as out-patient basis. During this phase, patients on existing urate lowering therapy were asked to discontinue their current therapy for the duration of the study. At the same time, patients also started colchicine 0.6 mg once daily as prophylaxis to prevent potential gout flares. Upon completing the Run-in/Stabilization Phase, patients were reassessed at Day −2 (Visit 2) to confirm the final eligibility for the Treatment Phase. The sUA at this visit must have been ≧8.0 mg/dL and ≦10 mg/dL to qualify for the Treatment Phase. In addition, all safety lab values must have met the eligibility criteria at this visit. Patients successfully meeting the eligibility criteria entered the study site for an in-clinic stay for a total of 37 consecutive days.
# The Treatment Phase began on Day 1 and continued for 5 weeks until Day 35. The Treatment Phase consisted of 3 sequential drug dosing periods:
# 80 mg febuxostat orally once daily from Days 1 through 7 (Febuxostat Period).
# 80 mg febuxostat plus 400 mg arhalofenate orally once daily from Days 8 through 21 (Febuxostat plus 400 mg arhalofenate Period).
# 80 mg febuxostat plus 600 mg arhalofenate orally once daily from Days 22 through 35 (Febuxostat plus 600 mg arhalofenate Period).
# In addition, all patients continued to receive 0.6 mg colchicine daily for gout flare prophylaxis.
# Efficacy of febuxostat plus arhalofenate combination treatment was assessed by the proportion of patients achieving a sUA<6 mg/dL, <5 mg/dL, <4 mg/dL, and <3 mg/dL at Day 22 and Day 36. In addition, absolute and percent changes in sUA at Day 22 and Day 36 from baseline (Day 1) were also evaluated. Gout flares were captured as special interest event in this study. The incidence of gout flares, severity (as assessed either mild, moderate, or severe by the Principal Investigator), and duration (days) were compared between treatment periods.
# [4] = Day 8, after one week of daily 80 mg febuxostat
compound,measurement,setting,value
"O=C(O)C(Oc1cccc(C(F)(F)F)c1)c1ccc(Cl)cc1 (single isomer, unassigned; (-)) [(−)-halofenic acid, (−)-4-chlorophenyl-(3-trifluoromethylphenoxy)acetic acid]",Half-life of (−)-halofenic acid in plasma,"[1]; daily oral 400 mg arhalofenate for 30 days, FIGS. 1-2",a long half-life with sustained drug levels present for several days after the final dose
same,Intraday plasma concentration profile,"[1]; daily oral 400 mg arhalofenate, Day 15 and Day 30, FIG. 2",a relatively constant intraday plasma concentration
"O=c1[nH]cnc2c(CN3C[C@H](CO)[C@@H](O)C3)c[nH]c12 [Ulodesine, 7-(((3R,4R)-3-hydroxy-4-(hydroxymethyl)pyrrolidin-1-yl)methyl)-3H-pyrrolo[3,2-d]pyrimidin-4(5H)-one]",Serum uric acid in gout patients,gout patients,rapidly and significantly reduced serum uric acid
"CC(=O)NCCOC(=O)[C@H](Oc1cccc(C(F)(F)F)c1)c1ccc(Cl)cc1 [arhalofenate, (−)-(R)-(4-chloro-phenyl)-(3-trifluoromethyl-phenoxy)-acetic acid 2-acetylamino-ethyl ester]",Flares considered moderate in severity by the investigator,[2]; 400 mg daily,2 of 4
same,Patients who reported flare during the Treatment Phase,"[2]; 400 mg daily, FIG. 4",19.0%
same,Patients with flare that required medication (additional colchicine and/or NSAIDs),"[2]; 400 mg daily, FIG. 4",4.8%
same,Mean duration of Flares Requiring Treatment,"[2]; 400 mg daily, FIG. 5",2.0 days
same,Mean duration of Total flares,"[2]; 400 mg daily, FIG. 5",1.3 days
same,Mean sUA absolute change from baseline (Day 1),[2]; 400 mg daily,-1.4 mg/dL
same,Mean sUA percent change from baseline (Day 1),[2]; 400 mg daily,−15.4%
same,Flares considered moderate in severity by the investigator,[2]; 600 mg daily,0 of 2
same,Patients who reported flare during the Treatment Phase,"[2]; 600 mg daily, FIG. 4",4.3%
same,Patients with flare that required medication (additional colchicine and/or NSAIDs),"[2]; 600 mg daily, FIG. 4",4.3%
same,Mean duration of Flares Requiring Treatment,"[2]; 600 mg daily, FIG. 5",1.0 days
same,Mean duration of Total flares,"[2]; 600 mg daily, FIG. 5",1.0 days
same,Mean sUA absolute change from baseline (Day 1),[2]; 600 mg daily,-2.3 mg/dL
same,Mean sUA percent change from baseline (Day 1),[2]; 600 mg daily,−23%
same,Incidence of any flares (Total flare) and flares requiring treatment compared to placebo,"[2]; monotherapy, FIG. 4",dose dependently reduced the incidence of any flares (Total flare) and flares requiring treatment compared to placebo
same,Duration of all flares (any flares and flares requiring treatment),"[2]; monotherapy, FIG. 5",also reduced the duration of all flares
same,Reduction in serum uric acid over time,healthy adult subjects,"gradual reduction in serum uric acid over a period of time at all dose levels tested, and in a dose dependent manner"
same,Uptake of uric acid into 3T3-L1 adipocytes,murine 3T3-L1 adipocytes,prevents the uptake of uric acid into 3T3-L1 adipocytes
same,Uric acid induced inflammatory response (expression and secretion of pro-inflammatory cytokines),murine 3T3-L1 adipocytes,suppresses the uric acid induced inflammatory response
"Cc1nc(-c2ccc(OCC(C)C)c(C#N)c2)sc1C(=O)O [febuxostat, 2-(3-cyano-4-isobutoxyphenyl)-4-methyl-1,3-thiazole-5-carboxylic acid]",Patients who experienced gout flares,"[3]; 1 week of febuxostat only period (80 mg), colchicine 0.6 mg background",2 patients
same,Patients who reached sUA <4 mg/dL,[3]; [4],9%
same,Patients who reached sUA <5 mg/dL,[3]; [4],55%
same,Patients who reached sUA target of <6 mg/dL,[3]; [4],100%
same,"Patients who reported flare, adjusted by duration of treatment","[3]; febuxostat only period, FIG. 6",18.2 % patients/week
same,Mean duration of the gout flares,"[3]; febuxostat only period, FIG. 7",6.5 days
